Assay results: the NIST ThermoML archive (doi:10.1016/j.jct.2018.12.019)

Tests used:
[1] = xn = mol fraction of the nth substance listed; conditions: 98 kPa, Liquid; for speed of sound: Frequency=3 MHz, Single path-length method; for mass density: Vibrating tube method
[2] = excess molar enthalpy (molar enthalpy of mixing); xn = mol fraction of the nth substance listed; conditions: 298.15 K, 98 kPa, Liquid, Calvet calorimetry

Cn1ccnc1 [1-methylimidazole] + CC(C)O
[1]
Conditions	mass density, 288.15 K [kg/m3]	mass density, 298.15 K [kg/m3]	mass density, 308.15 K [kg/m3]	mass density, 318.15 K [kg/m3]	mass density, 328.15 K [kg/m3]	speed of sound, 288.15 K [m/s]	speed of sound, 298.15 K [m/s]	speed of sound, 308.15 K [m/s]	speed of sound, 318.15 K [m/s]	speed of sound, 328.15 K [m/s]
x1 = 0.0508	803.32	794.92	786.26	777.31	767.99	1199.2	1164	1128.7	1093.2	1057.4
x1 = 0.1043	817.79	809.32	800.63	791.7	782.45	1224.9	1189.6	1154.6	1118.7	1083
x1 = 0.2003	843.18	834.63	825.91	817	807.86	1268.9	1233.4	1197.9	1162.5	1127.2
x1 = 0.3007	869.37	860.76	852.02	843.13	834.07	1313.8	1278.4	1242.9	1207.7	1172.6
x1 = 0.405	896.25	887.59	878.83	869.96	860.95	1360.7	1325.3	1289.7	1254.5	1219.5
x1 = 0.5046	921.64	912.93	904.15	895.28	886.27	1406.8	1371.1	1335.5	1300.1	1265
x1 = 0.6006	945.55	936.79	927.97	919.09	910.11	1451.7	1415.7	1379.6	1344	1308.6
x1 = 0.7034	970.8	962	953.15	944.24	935.27	1500.7	1464.1	1427.7	1391.6	1355.8
x1 = 0.8029	994.49	985.66	976.78	967.86	958.89	1547.2	1510.2	1473.3	1436.7	1400.5
x1 = 0.9031	1017.75	1008.9	1000.03	991.11	982.15	1592.8	1555.5	1518.1	1481.2	1444.6
x1 = 0.9536	1029.16	1020.32	1011.45	1002.55	993.6	1614.9	1577.5	1540	1502.9	1466.2
x1 = 1	1039.36	1030.52	1021.66	1012.76	1003.83	1634.1	1596.5	1559	1521.8	1485

[2]
Conditions	excess molar enthalpy [kcal/mol]
x1 = 0.0518	-0.0112
x1 = 0.1082	-0.0304
x1 = 0.1974	-0.0511
x1 = 0.2924	-0.0734
x1 = 0.3342	-0.0793
x1 = 0.3969	-0.0848
x1 = 0.4954	-0.0899
x1 = 0.5926	-0.0846
x1 = 0.7041	-0.0719
x1 = 0.798	-0.0519
x1 = 0.8831	-0.0294
x1 = 0.9538	-0.0143
x1 = 1	0

Cn1ccnc1 [1-methylimidazole] + CCCO
[1]
Conditions	mass density, 288.15 K [kg/m3]	mass density, 298.15 K [kg/m3]	mass density, 308.15 K [kg/m3]	mass density, 318.15 K [kg/m3]	mass density, 328.15 K [kg/m3]	speed of sound, 288.15 K [m/s]	speed of sound, 298.15 K [m/s]	speed of sound, 308.15 K [m/s]	speed of sound, 318.15 K [m/s]	speed of sound, 328.15 K [m/s]
x1 = 0.0507	820.94	812.86	804.67	796.32	787.79	1261.9	1227.2	1192.8	1158.7	1124.9
x1 = 0.1042	834.73	826.55	818.26	809.85	801.26	1284.5	1249.6	1214.9	1180.6	1146.6
x1 = 0.2018	859.55	851.23	842.82	834.3	825.64	1324.6	1289.5	1254.5	1219.9	1185.7
x1 = 0.301	884.11	875.67	867.16	858.56	849.84	1364.2	1329	1293.8	1259	1224.5
x1 = 0.4047	909.21	900.68	892.08	883.41	874.64	1405.6	1370.1	1334.7	1299.7	1265
x1 = 0.5076	933.32	924.7	916.03	907.3	898.5	1446.2	1410.4	1374.6	1339.2	1304.2
x1 = 0.6006	954.58	945.89	937.17	928.39	919.55	1483.1	1447	1410.8	1375.1	1339.7
x1 = 0.7029	977.37	968.62	959.84	951.01	942.13	1523.8	1487.2	1450.6	1414.4	1378.5
x1 = 0.8027	999.22	990.42	981.59	972.72	963.81	1564.5	1527.3	1490.2	1453.5	1417.2
x1 = 0.903	1020.12	1011.3	1002.44	993.55	984.62	1602	1564.6	1527.1	1490.1	1453.4
x1 = 0.9532	1030.34	1021.51	1012.64	1003.74	994.81	1620.1	1582.6	1545.1	1507.9	1471.1
x1 = 1	1039.36	1030.52	1021.66	1012.76	1003.83	1634.1	1596.5	1559	1521.8	1485

[2]
Conditions	excess molar enthalpy [kcal/mol]
x1 = 0.05	-0.032
x1 = 0.101	-0.0624
x1 = 0.193	-0.112
x1 = 0.2923	-0.151
x1 = 0.3845	-0.179
x1 = 0.4985	-0.188
x1 = 0.5962	-0.179
x1 = 0.7004	-0.147
x1 = 0.8026	-0.106
x1 = 0.8897	-0.0564
x1 = 0.9463	-0.0311
x1 = 1	0
